# Laboratory results from patent US6479435B1, “Diaryl ethers and processes for their preparation and herbicidal and desiccant compositions containing them” (ISK Americas Incorporated, priority 1997, dated 2002).
# Tests used:
# Format in all cases: in vivo
# [1] = tested on: Johnsongrass (Sorghum halepense, SORHA); assay: Pre-emerge greenhouse herbicide test, phytotoxicity rating; conditions: 14 days after application, rating scale 0-100
# In short: (§1)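 Visual 0–100 injury rating (100 = all plants dead) taken 14 days after treatment. Rates of 125–1000 g ai/ha in acetone, 187 l/ha, were sprayed onto soil one day post-sowing; pots were surface-watered to incorporate, then bottom-watered.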
# [2] = tested on: barnyardgrass (Echinochloa crusgalli, ECHCG); assay: as above; conditions: 14 days after application, rating scale 0-100
# In short: as §1
# [3] = tested on: common ragweed (Ambrosia artemisiifolia L., AMBEL); assay: as above; conditions: 14 days after application, rating scale 0-100
# In short: as §1
# [4] = tested on: green foxtail (Setaria viridis, SETVI); assay: as above; conditions: 14 days after application, rating scale 0-100
# In short: as §1
# [5] = tested on: ivyleaf morningglory (Ipomoea hederacea, IPOHE); assay: as above; conditions: 14 days after application, rating scale 0-100
# In short: as §1
# [6] = tested on: lambsquarters (Chenopodium album, CHEAL); assay: as above; conditions: 14 days after application, rating scale 0-100
# In short: as §1
# [7] = tested on: large crabgrass (Digitaria sanguinalis, DIGSA); assay: as above; conditions: 14 days after application, rating scale 0-100
# In short: as §1
# [8] = tested on: redroot pigweed (Amaranthus retroflexus, AMARE); assay: as above; conditions: 14 days after application, rating scale 0-100
# In short: as §1
# [9] = tested on: sicklepod (Cassia obtusifolia, CASOB); assay: as above; conditions: 14 days after application, rating scale 0-100
# In short: as §1
# [10] = tested on: velvetleaf (Abutilon theophrasti, ABUTH); assay: as above; conditions: 14 days after application, rating scale 0-100
# In short: as §1
# [11] = tested on: field corn (Zea mays L., var. Dekalb 535, CORN); assay: Pre-emerge greenhouse test, crop damage rating; conditions: 14 days after application, rating scale 0-100
# In short: as §1
# [12] = tested on: upland rice (Oryza sp., var.Tebonnet, RICE); assay: Pre-emerge greenhouse test, crop damage rating; conditions: 14 days after application, rating scale 0-100
# In short: as §1
# [13] = tested on: soybean (Glycine max L., var. Pella 86, SOY); assay: Pre-emerge greenhouse test, crop damage rating; conditions: 14 days after application, rating scale 0-100
# In short: as §1
# [14] = tested on: common ragweed (Ambrosia artemisiifolia L., AMBEL); assay: Post-emerge greenhouse herbicide test, phytotoxicity rating; conditions: 14 days after application
# In short: (§2)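 Scores use a 0 (no damage) to 100 (complete kill) scale, taken 14 days after a foliar spray. Acetone solutions with 0.25% v/v non-ionic surfactant were applied by track sprayer at 187 l/ha and 63-1000 g ai/ha to bottom-watered 2-3 leaf plants.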
# [15] = tested on: Johnsongrass (Sorghum halepense, SORHA); assay: as above; conditions: 14 days after application
# In short: as §2
# [16] = tested on: barnyardgrass (Echinochloa crusgalli, ECHCG); assay: as above; conditions: 14 days after application
# In short: as §2
# [17] = tested on: green foxtail (Setaria viridis, SETVI); assay: as above; conditions: 14 days after application
# In short: as §2
# [18] = tested on: ivyleaf morningglory (Ipomoea hederacea, IPOHE); assay: as above; conditions: 14 days after application
# In short: as §2
# [19] = tested on: lambsquarters (Chenopodium album, CHEAL); assay: as above; conditions: 14 days after application
# In short: as §2
# [20] = tested on: large crabgrass (Digitaria sanguinalis, DIGSA); assay: as above; conditions: 14 days after application
# In short: as §2
# [21] = tested on: redroot pigweed (Amaranthus retroflexus, AMARE); assay: as above; conditions: 14 days after application
# In short: as §2
# [22] = tested on: sicklepod (Cassia obtusifolia, CASOB); assay: as above; conditions: 14 days after application
# In short: as §2
# [23] = tested on: velvetleaf (Abutilon theophrasti, ABUTH); assay: as above; conditions: 14 days after application
# In short: as §2
# [24] = tested on: field corn (Zea mays L., var. Dekalb 535, CORN); assay: Post-emerge greenhouse test, crop damage rating; conditions: 14 days after application
# In short: as §2
# [25] = tested on: upland rice (Oryza sp., var.Tebonnet, RICE); assay: Post-emerge greenhouse test, crop damage rating; conditions: 14 days after application
# In short: as §2
# [26] = tested on: soybean (Glycine max L., var. Pella 86, SOY); assay: Post-emerge greenhouse test, crop damage rating; conditions: 14 days after application
# In short: as §2
structure (smiles),measurement,setting,value
O=c1n(-c2cc(Oc3ccccc3[N+](=O)[O-])c(Cl)cc2F)c(=S)n2n1CCCC2 [Compound 8-6],phytotoxicity rating SORHA,[1]; 125 g ai/ha,20
same,phytotoxicity rating SORHA,[1]; 500 g ai/ha,50
same,phytotoxicity rating ECHCG,[2]; 125 g ai/ha,20
same,phytotoxicity rating ECHCG,[2]; 500 g ai/ha,50
same,phytotoxicity rating AMBEL,[3]; 125 g ai/ha,40
same,phytotoxicity rating AMBEL,[3]; 500 g ai/ha,100
same,phytotoxicity rating SETVI,[4]; 125 g ai/ha,95
same,phytotoxicity rating SETVI,[4]; 500 g ai/ha,100
same,phytotoxicity rating IPOHE,[5]; 125 g ai/ha,50
same,phytotoxicity rating IPOHE,[5]; 500 g ai/ha,90
same,phytotoxicity rating CHEAL,[6]; 125 g ai/ha,100
same,phytotoxicity rating CHEAL,[6]; 500 g ai/ha,100
same,phytotoxicity rating DIGSA,[7]; 125 g ai/ha,40
same,phytotoxicity rating DIGSA,[7]; 500 g ai/ha,100
same,phytotoxicity rating AMARE,[8]; 125 g ai/ha,100
same,phytotoxicity rating AMARE,[8]; 500 g ai/ha,100
same,phytotoxicity rating CASOB,[9]; 125 g ai/ha,100
same,phytotoxicity rating CASOB,[9]; 500 g ai/ha,95
same,phytotoxicity rating ABUTH,[10]; 125 g ai/ha,100
same,phytotoxicity rating ABUTH,[10]; 500 g ai/ha,100
same,crop damage rating CORN,[11]; 125 g ai/ha,0
same,crop damage rating CORN,[11]; 500 g ai/ha,0
same,crop damage rating RICE,[12]; 125 g ai/ha,10
same,crop damage rating RICE,[12]; 500 g ai/ha,40
same,crop damage rating SOY,[13]; 125 g ai/ha,20
same,crop damage rating SOY,[13]; 500 g ai/ha,40
same,AMBEL phytotoxicity rating (0-100),[14]; 63 g al/ha,60
same,AMBEL phytotoxicity rating (0-100),[14]; 500 g al/ha,90
same,SORHA phytotoxicity rating (0-100),[15]; 63 g al/ha,0
same,SORHA phytotoxicity rating (0-100),[15]; 500 g al/ha,30
same,ECHCG phytotoxicity rating (0-100),[16]; 63 g al/ha,10
same,ECHCG phytotoxicity rating (0-100),[16]; 500 g al/ha,30
same,SETVI phytotoxicity rating (0-100),[17]; 63 g al/ha,30
same,SETVI phytotoxicity rating (0-100),[17]; 500 g al/ha,90
same,IPOHE phytotoxicity rating (0-100),[18]; 63 g al/ha,90
same,IPOHE phytotoxicity rating (0-100),[18]; 500 g al/ha,100
same,CHEAL phytotoxicity rating (0-100),[19]; 63 g al/ha,90
same,CHEAL phytotoxicity rating (0-100),[19]; 500 g al/ha,99
same,DIGSA phytotoxicity rating (0-100),[20]; 63 g al/ha,0
same,DIGSA phytotoxicity rating (0-100),[20]; 500 g al/ha,30
same,AMARE phytotoxicity rating (0-100),[21]; 63 g al/ha,100
same,AMARE phytotoxicity rating (0-100),[21]; 500 g al/ha,100
same,CASOB phytotoxicity rating (0-100),[22]; 63 g al/ha,60
same,CASOB phytotoxicity rating (0-100),[22]; 500 g al/ha,100
same,ABUTH phytotoxicity rating (0-100),[23]; 63 g al/ha,100
same,ABUTH phytotoxicity rating (0-100),[23]; 500 g al/ha,100
same,CORN crop damage rating (0-100),[24]; 63 g al/ha,5
same,CORN crop damage rating (0-100),[24]; 500 g al/ha,20
same,RICE crop damage rating (0-100),[25]; 63 g al/ha,5
same,RICE crop damage rating (0-100),[25]; 500 g al/ha,50
same,SOY crop damage rating (0-100),[26]; 63 g al/ha,70
same,SOY crop damage rating (0-100),[26]; 500 g al/ha,90
O=c1n(-c2cc(Oc3ccc([N+](=O)[O-])cc3)c(Cl)cc2F)c(=S)n2n1CCCC2 [Compound 8-8],phytotoxicity rating SORHA,[1]; 125 g ai/ha,30
same,phytotoxicity rating SORHA,[1]; 500 g ai/ha,30
same,phytotoxicity rating ECHCG,[2]; 125 g ai/ha,0
same,phytotoxicity rating ECHCG,[2]; 500 g ai/ha,20
same,phytotoxicity rating AMBEL,[3]; 125 g ai/ha,0
same,phytotoxicity rating AMBEL,[3]; 500 g ai/ha,20
same,phytotoxicity rating SETVI,[4]; 125 g ai/ha,60
same,phytotoxicity rating SETVI,[4]; 500 g ai/ha,95
same,phytotoxicity rating IPOHE,[5]; 125 g ai/ha,0
same,phytotoxicity rating IPOHE,[5]; 500 g ai/ha,10
same,phytotoxicity rating CHEAL,[6]; 125 g ai/ha,0
same,phytotoxicity rating CHEAL,[6]; 500 g ai/ha,10
same,phytotoxicity rating DIGSA,[7]; 125 g ai/ha,40
same,phytotoxicity rating DIGSA,[7]; 500 g ai/ha,40
same,phytotoxicity rating AMARE,[8]; 125 g ai/ha,100
same,phytotoxicity rating AMARE,[8]; 500 g ai/ha,100
same,phytotoxicity rating CASOB,[9]; 125 g ai/ha,0
same,phytotoxicity rating CASOB,[9]; 500 g ai/ha,80
same,phytotoxicity rating ABUTH,[10]; 125 g ai/ha,90
same,phytotoxicity rating ABUTH,[10]; 500 g ai/ha,100
same,crop damage rating CORN,[11]; 125 g ai/ha,5
same,crop damage rating CORN,[11]; 500 g ai/ha,0
same,crop damage rating RICE,[12]; 125 g ai/ha,0
same,crop damage rating RICE,[12]; 500 g ai/ha,0
same,crop damage rating SOY,[13]; 125 g ai/ha,0
same,crop damage rating SOY,[13]; 500 g ai/ha,20
same,AMBEL phytotoxicity rating (0-100),[14]; 63 g al/ha,30
same,AMBEL phytotoxicity rating (0-100),[14]; 500 g al/ha,40
same,SORHA phytotoxicity rating (0-100),[15]; 63 g al/ha,10
same,SORHA phytotoxicity rating (0-100),[15]; 500 g al/ha,0
same,ECHCG phytotoxicity rating (0-100),[16]; 63 g al/ha,10
same,ECHCG phytotoxicity rating (0-100),[16]; 500 g al/ha,0
same,SETVI phytotoxicity rating (0-100),[17]; 63 g al/ha,20
same,SETVI phytotoxicity rating (0-100),[17]; 500 g al/ha,30
same,IPOHE phytotoxicity rating (0-100),[18]; 63 g al/ha,90
same,IPOHE phytotoxicity rating (0-100),[18]; 500 g al/ha,50
same,CHEAL phytotoxicity rating (0-100),[19]; 63 g al/ha,99
same,CHEAL phytotoxicity rating (0-100),[19]; 500 g al/ha,100
same,DIGSA phytotoxicity rating (0-100),[20]; 63 g al/ha,0
same,DIGSA phytotoxicity rating (0-100),[20]; 500 g al/ha,0
same,AMARE phytotoxicity rating (0-100),[21]; 63 g al/ha,95
same,AMARE phytotoxicity rating (0-100),[21]; 500 g al/ha,100
same,CASOB phytotoxicity rating (0-100),[22]; 63 g al/ha,40
same,CASOB phytotoxicity rating (0-100),[22]; 500 g al/ha,40
same,ABUTH phytotoxicity rating (0-100),[23]; 63 g al/ha,95
same,ABUTH phytotoxicity rating (0-100),[23]; 500 g al/ha,100
same,CORN crop damage rating (0-100),[24]; 63 g al/ha,10
same,CORN crop damage rating (0-100),[24]; 500 g al/ha,10
same,RICE crop damage rating (0-100),[25]; 63 g al/ha,0
same,RICE crop damage rating (0-100),[25]; 500 g al/ha,10
same,SOY crop damage rating (0-100),[26]; 63 g al/ha,25
same,SOY crop damage rating (0-100),[26]; 500 g al/ha,75
